Test results reported in US8748625B2, “Crystalline forms of 3-[5-(2-fluorophenyl)-[1,2,4]oxadiazol-3-yl]-benzoic acid” (PTC Therapeutics, Inc., priority 2006, dated 2014).
“Also recorded” adds a separate entry of the source.

Assays:
Assay type in all cases: physicochemical
[1] = Physical stability on storage at controlled relative humidity; settings: stored 6 days
Protocol: 3-[5-(2-fluorophenyl)-[1,2,4]oxadiazol-3-yl]-benzoic acid (UNMEASURED QUANTITY; FORM B) was stressed in 75% relative humidity at 40° C. for six days.

[2] = Physical stability on milling / micronization; settings: for physical stability when milled: milled at ambient and at sub-ambient temperatures
[3] = Physical stability on slurrying in solvents
[4] = Dynamic vapor sorption (DVS) hygroscopicity; settings: for hygroscopicity: DVS isotherm
Protocol: Form A of 3-[5-(2-fluorophenyl)-[1,2,4]oxadiazol-3-yl]-benzoic acid was evaluated for hygroscopicity. Dynamic vapor sorption (DVS) analysis of moisture uptake and moisture release as a function of relative humidity (RH) were obtained upon cycling between 5% and 95% RH. […] Accordingly, in certain embodiments, Form A is non-hygroscopic.
Moisture sorption/desorption data were collected on a VTI SGA-100 Vapor Sorption Analyzer. Sorption and desorption data were collected over a range of 5% to 95% relative humidity (RH) at 10% RH intervals under a nitrogen purge. Samples were not dried prior to analysis. Equilibrium criteria used for analysis were less than 0.0100% weight change in 5 minutes, with a maximum equilibration time of 3 hours if the weight criterion was not met. Data were not corrected for the initial moisture content of the samples. NaCl and PVP were used as calibration standards.

[5] = Physical stability under compression

physical stability on storage ([1]; 50% RH at 60° C.) | physical stability on storage ([1]; 53% RH at 40° C.) | physical stability on storage ([1]; 79% RH at 60° C.) | physical and chemical stability upon micronization ([2]; micronization (particle size reduction)) | physical stability when milled [2] | physical stability when slurried ([3]; in 1-BuOH for 4 days at ambient temperature) | physical stability when slurried ([3]; in chloroform for 2 days at 50° C.) | physical stability when slurried ([3]; in dichloromethane for 2 days at 50° C.) | hygroscopicity [4] | physical stability when slurried ([3]; 1 day at ambient temperature in a 1:1 mixture of THF and heptane) | physical stability when slurried ([3]; in a 1:1 mixture of dioxane and water) | physical stability when slurried ([3]; in methyl isobutyl ketone) | physical stability under compression ([5]; compression alone) | physical stability under compression ([5]; compression in the presence of a 1:1 mixture of t-BuOH and water) | Structure (SMILES) | physical stability on storage ([1]; 75% RH at 40° C.) | maximum moisture uptake (DVS) ([4]; cycling between 5% and 95% RH)
physically stable | physically stable | physically stable | physically and chemically stable | physically stable | physically stable | physically stable | physically stable | substantially non-hygroscopic |  |  |  |  |  | O=C(O)c1cccc(-c2noc(-c3ccccc3F)n2)c1 [Form A, 3-[5-(2-fluorophenyl)-[1,2,4]oxadiazol-3-yl]-benzoic acid] | physically stable | about 0.06 % of the total mass of the sample
physically stable | physically stable | partial conversion to Form A |  | conversion from Form B to Form A |  |  |  | substantially non-hygroscopic | physically stable | conversion of Form B to Form A | conversion of Form B to Form A | physically stable | physically stable | O=C(O)c1cccc(-c2noc(-c3ccccc3F)n2)c1 [Form B, 3-[5-(2-fluorophenyl)-[1,2,4]oxadiazol-3-yl]-benzoic acid] | physically stable; also recorded: characterized by XRPD as Form B | 
